# Numbered stars: 1 amine (or outer) side, 2 acyl side, 3 side chain; on linkers, the order of the positions; unused ones are H or OH. Square brackets hold non-standard residues; d marks the D form. Peptide text beside a SMILES is read from it. X2 = O=C([C@H]1C[S+]([O-])CN1[*:1])[*:2]; Thz(5,5-Me2) = CC1(C)SCN[C@@H]1C(=O)O; Pen = CC(C)(S)[C@H](N)C(=O)O; NMeA = CN[C@@H](C)C(=O)O; Ac5c = NC1(C(=O)O)CCCC1; Aib = CC(C)(N)C(=O)O; Sar = CNCC(=O)O
# Molecular target: T1, Angiotensin II receptor (Rattus norvegicus, UniProt P29089+P25095+P35351)
# T1 sequence (P29089 whole entry): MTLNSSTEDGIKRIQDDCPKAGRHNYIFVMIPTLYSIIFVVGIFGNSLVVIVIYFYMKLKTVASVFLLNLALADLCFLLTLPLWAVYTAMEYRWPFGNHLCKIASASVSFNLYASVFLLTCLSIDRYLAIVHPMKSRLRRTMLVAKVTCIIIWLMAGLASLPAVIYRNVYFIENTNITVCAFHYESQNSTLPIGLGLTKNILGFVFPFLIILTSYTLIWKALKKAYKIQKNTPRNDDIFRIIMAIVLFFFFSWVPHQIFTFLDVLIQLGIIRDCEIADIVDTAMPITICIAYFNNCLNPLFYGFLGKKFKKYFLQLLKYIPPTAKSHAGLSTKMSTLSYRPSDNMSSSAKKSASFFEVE
# T1 sequence (P25095 whole entry): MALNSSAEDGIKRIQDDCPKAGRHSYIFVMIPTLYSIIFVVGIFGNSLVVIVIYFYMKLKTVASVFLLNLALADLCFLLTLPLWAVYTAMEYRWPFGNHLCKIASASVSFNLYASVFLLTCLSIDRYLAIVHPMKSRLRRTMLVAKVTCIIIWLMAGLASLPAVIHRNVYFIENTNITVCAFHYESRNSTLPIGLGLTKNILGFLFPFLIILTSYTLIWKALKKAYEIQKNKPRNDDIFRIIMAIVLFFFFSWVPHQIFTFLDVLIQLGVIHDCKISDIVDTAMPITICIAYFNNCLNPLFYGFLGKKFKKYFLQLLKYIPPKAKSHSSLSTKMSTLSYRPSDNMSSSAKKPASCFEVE
# T1 sequence (P35351 whole entry): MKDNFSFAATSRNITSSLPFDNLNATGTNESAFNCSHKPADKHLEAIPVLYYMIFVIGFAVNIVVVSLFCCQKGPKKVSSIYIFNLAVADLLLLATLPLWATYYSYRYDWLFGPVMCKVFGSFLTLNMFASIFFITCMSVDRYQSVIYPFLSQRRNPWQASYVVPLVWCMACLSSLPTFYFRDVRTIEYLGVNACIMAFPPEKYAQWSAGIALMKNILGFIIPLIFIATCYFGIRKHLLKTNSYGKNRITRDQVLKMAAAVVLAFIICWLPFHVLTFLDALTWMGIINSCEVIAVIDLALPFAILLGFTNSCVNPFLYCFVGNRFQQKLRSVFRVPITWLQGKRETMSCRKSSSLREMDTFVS
# Experiment: In vitro antagonist activity (ANG II like) expressed as percent activity relative to ANG II in rabbit aorta strip assay.
# Format: functional, tissue-based
row,SMILES,pA2
1,CC[C@H](C)[C@H](NC(=O)[C@H]1C[S+]([O-])CN1C(=O)[C@H](Cc1c[nH]cn1)NC(=O)[C@@H](NC(=O)[C@H](Cc1ccc(O)cc1)NC(=O)[C@@H](NC(=O)[C@H](CCCN=C(N)N)NC(=O)CNC)C(C)C)[C@@H](C)CC)C(=O)O (some centres undefined) (H-[Sar]RVYIH[X2]I-OH),6.7
2,CC[C@H](C)[C@H](NC(=O)[C@@H]1CCCN1C(=O)[C@H](Cc1c[nH]cn1)NC(=O)[C@H](Cc1ccc(O)cc1)NC(=O)[C@H](Cc1ccc(O)cc1)NC(=O)[C@@H](NC(=O)[C@H](CCCN=C(N)N)NC(=O)CNC)C(C)C)C(=O)O,9.6
3,CC[C@H](C)[C@H](NC(=O)[C@@H]1CSCN1C(=O)[C@H](Cc1c[nH]cn1)NC(=O)[C@@H](NC(=O)[C@H](Cc1ccc(O)cc1)NC(=O)[C@@H](NC(=O)[C@H](CCCN=C(N)N)NC(=O)CNC)C(C)C)[C@@H](C)CC)C(=O)O,9.7

# Results, then the compound that gave them:
row,pA2,SMILES
1,9,CC[C@H](C)[C@H](NC(=O)[C@@H]1CCCN1C(=O)[C@H](Cc1c[nH]cn1)NC(=O)[C@H]1N(C(=O)[C@H](Cc2ccc(O)cc2)NC(=O)[C@@H](NC(=O)[C@H](CCCN=C(N)N)NC(=O)CNC)C(C)C)CSC1(C)C)C(=O)O
2,7.5,CNCC(=O)N[C@@H](CCCN=C(N)N)C(=O)N[C@H](C(=O)N[C@@H](Cc1ccc(O)cc1)C(=O)N1CSC(C)(C)[C@H]1C(=O)N[C@@H](Cc1c[nH]cn1)C(=O)N1CCC[C@H]1C(=O)N[C@H](Cc1ccccc1)C(=O)O)C(C)C
3,7.5,CC[C@H](C)[C@H](NC(=O)[C@H]1N(C(=O)[C@H](Cc2c[nH]cn2)NC(=O)[C@@H](NC(=O)[C@H](Cc2ccc(O)cc2)NC(=O)[C@@H](NC(=O)[C@H](CCCN=C(N)N)NC(=O)CNC)C(C)C)[C@@H](C)CC)CSC1(C)C)C(=O)O
4,< 6,"CNCC(=O)N[C@@H](CCCN=C(N)N)C(=O)N(C)[C@@H](C)C(=O)N[C@@H](Cc1ccc(O)cc1)C(=O)N1CSC(C)(C)[C@H]1C(=O)N[C@@H](Cc1c[nH]cn1)C(=O)N1CCC[C@H]1C(=O)NC(C)(C)C(=O)O (H-[Sar]R[NMeA]Y[Thz(5,5-Me2)]HP[Aib]-OH)"
5,9,CC[C@H](C)[C@H](NC(=O)[C@@H]1CCCN1C(=O)[C@H](Cc1c[nH]cn1)NC(=O)[C@@H](NC(=O)[C@H](Cc1ccc(O)cc1)NC(=O)[C@@H](NC(=O)[C@H](CCCN=C(N)N)NC(=O)CNC)C(C)C)C(C)(C)SC)C(=O)O (H-[Sar]RVY[Pen](Me)HPI-OH)

# Molecular target: Angiotensin II receptor (Rattus norvegicus) (UniProt P29089+P25095+P35351)
# Experiment: In vitro agonist activity relative to angiotensin II measured in rabbit aorta strip assay.
# Format: functional, tissue-based
row,Activity [%],SMILES
1,120,CC[C@H](C)[C@H](NC(=O)[C@H](Cc1ccc(O)cc1)NC(=O)[C@H](C)N(C)C(=O)[C@H](CCCN=C(N)N)NC(=O)CNC)C(=O)N[C@@H](Cc1c[nH]cn1)C(=O)N1CCC[C@H]1C(=O)N[C@@H](Cc1ccccc1)C(=O)O
2,38,CC[C@H](C)[C@H](NC(=O)[C@H](Cc1ccc(O)cc1)NC(=O)[C@H](C)NC(=O)[C@H](CCCN=C(N)N)NC(=O)CNC)C(=O)N[C@@H](Cc1c[nH]cn1)C(=O)N1CCC[C@H]1C(=O)N[C@@H](Cc1ccccc1)C(=O)O (H-[Sar]RAYIHPF-OH)
3,70,CNCC(=O)N[C@@H](CCCN=C(N)N)C(=O)N[C@H](C(=O)N[C@@H](Cc1ccc(O)cc1)C(=O)NC1(C(=O)N[C@@H](Cc2c[nH]cn2)C(=O)N2CCC[C@H]2C(=O)N[C@@H](Cc2ccccc2)C(=O)O)CCCC1)C(C)C (H-[Sar]RVY[Ac5c]HPF-OH)
4,0,CC[C@@H](C)[C@@H](NC(=O)[C@H](Cc1ccc(O)cc1)NC(=O)[C@@H](NC(=O)[C@H](CCCN=C(N)N)NC(=O)CNC)C(C)C)C(=O)N[C@@H](Cc1c[nH]cn1)C(=O)N1CCC[C@H]1C(=O)NC(C)(C)C(=O)O
5,0,CC[C@H](C)[C@H](NC(=O)[C@H]1CSCN1C(=O)[C@H](Cc1c[nH]cn1)NC(=O)[C@@H](NC(=O)[C@H](Cc1ccc(O)cc1)NC(=O)[C@@H](NC(=O)[C@H](CCCN=C(N)N)NC(=O)CNC)C(C)C)[C@@H](C)CC)C(=O)O
6,20,CC[C@H](C)[C@@H](C(=O)N[C@@H](Cc1c[nH]cn1)C(=O)N1CCC[C@H]1C(=O)N[C@@H](Cc1ccccc1)C(=O)O)N(C)C(=O)[C@H](Cc1ccc(O)cc1)NC(=O)[C@@H](NC(=O)[C@H](CCCN=C(N)N)NC(=O)CNC)C(C)C

# Reference: ChEMBL document CHEMBL1125769 (J Med Chem, 1991)
